Assay [1] deals with adjuvant arthritis in the rat. The assay can be described thus: Adjuvant arthritis test in the rat. The settings on record: read-out: ACTIVE DOSE. The class given is in vivo. From the text:
The test is as described by Newbould, Brit. J. Pharmacol., 1963, 21, 127-136. Compounds were active at the doses shown below.

The target in a further assay is T1, 5-Lipoxygenase enzyme (Rattus norvegicus, UniProt P12527).
T1 construct: 5-Lipoxygenase enzyme was prepared as a 10,000 g supernatant from RBL-1 cells; endogenous in cells; host or cells: RBL-1 cells (10,000 g supernatant)
T1 sequence (P12527 1-673): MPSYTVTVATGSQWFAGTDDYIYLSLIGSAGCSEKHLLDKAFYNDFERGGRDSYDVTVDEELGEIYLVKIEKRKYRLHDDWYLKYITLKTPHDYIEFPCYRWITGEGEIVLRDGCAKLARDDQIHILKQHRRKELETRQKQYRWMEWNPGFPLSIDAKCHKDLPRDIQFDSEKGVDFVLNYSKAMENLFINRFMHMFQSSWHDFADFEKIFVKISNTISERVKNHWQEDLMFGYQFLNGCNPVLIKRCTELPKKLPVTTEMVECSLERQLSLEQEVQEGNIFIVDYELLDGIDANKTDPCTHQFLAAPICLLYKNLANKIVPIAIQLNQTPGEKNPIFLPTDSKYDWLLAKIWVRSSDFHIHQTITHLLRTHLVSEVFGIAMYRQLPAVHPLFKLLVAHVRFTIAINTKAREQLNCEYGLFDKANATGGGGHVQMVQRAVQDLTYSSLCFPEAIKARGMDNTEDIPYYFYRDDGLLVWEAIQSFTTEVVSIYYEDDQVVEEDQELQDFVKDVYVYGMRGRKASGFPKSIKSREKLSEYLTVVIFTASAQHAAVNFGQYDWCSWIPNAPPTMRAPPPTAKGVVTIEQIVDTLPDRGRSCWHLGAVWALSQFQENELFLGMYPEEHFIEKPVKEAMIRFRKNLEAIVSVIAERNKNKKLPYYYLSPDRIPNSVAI
The assay can be described thus: Inhibition of 5-lipoxygenase activity (10,000 g supernatant from RBL-1 cells). The class given is biochemical. The settings on record: RBL-1 supernatant, 6.3 μm arachidonic acid, 29° C. On the procedure: 5-Lipoxygenase enzyme was prepared as a 10,000 g supernatant from RBL-1 cells by the method of Jakschik [Jakschik, B. A., F. F. Sun, L. M. Lee, and M. M. Steinhoff, 1980, Biochem. Biophys. Res. Comm. 95, 103]. The 10,000 g supernatant was diluted with homogenization buffer to the equivalent of 1.5-2.5×10^7 cells. ml^-1 and made 2 mM with respect to CaCl2. Aliquots of 0.5 ml were then dispensed into tubes, and incubated at 29° C. with 5 μl ethanol or compound in ethanol at the desired concentration for 2 min. Then [1-^14 C] arachidonic acid was added in buffer to give a final concentration of 6.3 μm and 0.2 μCi per incubation, and the reaction continued at 29° C. for 2 min. The reaction was terminated by adding 1 ml of acetone and cooling on ice, 0.5 ml of ice-cold saline and 10 μl of 2N formic acid were added, and the mixture was extracted with 2×2 ml of chloroform. The extract was stored under N2 at -20° C. until analysis by chromatography. Activity was measured as the percentage of total radioactivity found in 5-HETE and 5,12-diHETE, and inhibition calculated as the decrease in formation of the sum of these two species in compound-treated incubates relative to control incubates.
(P values as assessed by the students `t` test).

The record followed here is patent US4578393A, “Dihydroisoquinoline derivatives” (Beecham Group p.l.c., priority 1983, dated 1986).

Where a name gives a salt, the structure may show the parent alone. Read-outs that look alike come from different tables or passages of the source.

For the molecule `CN(C)C1=NC(c2ccccc2Cl)c2ccccc2C1.Cl` (stereo not shown) [Example 1, 1-(2-Chlorophenyl)-3-dimethylamino-1,4-dihydroisoquinoline hydrochloride], the minimal effective dose in assay [1] (po) came out at 25 mg/kg. The “inhibition of 5-lipoxygenase (formation of 5-HETE and 5,12-diHETE)” value against 5-Lipoxygenase enzyme (concentration of 5 μm) is 15%; against 5-Lipoxygenase enzyme (concentration of 50 μm), 50%.
Regarding `CN(C)C1=NC(c2ccc(Cl)cc2)c2ccccc2C1.Cl.O` (stereo not shown) [Example 2, 1-(4-Chlorophenyl)-3-dimethylamino-1,4-dihydroisoquinoline hydrochloride hydrate], in assay [1] (po), the minimal effective dose stood at 12.5 mg/kg.
Consider `CN(C)C1=NC(c2ccccc2F)c2ccccc2C1` (stereo not shown) [Example 10, 1-(2-Fluorophenyl)-1,4-dihydro-3-dimethylaminoisoquinoline hydrochloride], for which the minimal effective dose in assay [1] (po) worked out at 25 mg/kg.
`Br.CN(C)C1=NC(c2ccc(Cl)cc2)c2cc(O)c(O)cc2C1` (stereo not shown) [Example 30, 1-(4-Chlorophenyl)-6,7-dihydroxy-3-dimethylamino-1,4-dihydroisoquinoline hydrobromide]: in assay [1] (ip), the minimal effective dose was found to be 12.5 mg/kg. Besides, the “inhibition of 5-lipoxygenase (formation of 5-HETE and 5,12-diHETE)” value against 5-Lipoxygenase enzyme (concentration of 5 μm) amounted to 37%; against 5-Lipoxygenase enzyme (concentration of 50 μm), 92%.
Take `Br.CN(C)C1=NC(c2ccc(Cl)cc2)c2c(O)cccc2C1.O` (stereo not shown) [Example 31, 1-(4-Chlorophenyl)-3-dimethylamino-8-hydroxy-1,4-dihydroisoquinoline hydrobromide hydrate]: in assay [1] (ip), the minimal effective dose stood at 20 mg/kg.
Consider `Br.CN(C)C1=NC(c2ccc(Cl)cc2)c2ccc(O)cc2C1` (stereo not shown) [Example 32, 1-(4-Chlorophenyl)-3-dimethylamino-6-hydroxy-1,4-dihydroisoquinoline hydrobromide], for which the minimal effective dose in assay [1] (ip) worked out at 25 mg/kg.
